Source: PMC11085134, “Chemical Constituents and Anticancer Activities of Marine-Derived Fungus Trichoderma lixii” (Molecules, 2024)
Entries after “also recorded” stand apart in the source; their conditions may differ. Where two headings read alike, the source gives them in different places.

Columns and labels:
[1] = system: PANC-1 cancer cells; test: Anti-austerity assay (cytotoxicity under glucose starvation vs normal glucose); conditions: for Anti-Austerity Activity Selectivity: Glucose − versus Glucose +; for Selective index (SI): IC50 high glucose versus no glucose media
Description: Human myeloma KMS-11, colorectal HT-29, and pancreatic PANC-1 cancer cells were obtained from the Japanese Collection of Research Bioresources (JCRB) Cell Bank (JCRB1179, Osaka, Japan), the American Type Culture Collection (ATCC, HTB-38, Manassas, VA, USA), and the Riken BioResource Research Center (BRC, RCB2095, Ibaraki, Japan), respectively. KMS-11, HT-29, and PANC-1 were cultured in Roswell Park Memorial Institute (RPMI)-1640 medium (Nacalai Tesque, Inc.), McCoy’s 5A medium (Gibco Thermo Fisher Scientific Inc., Waltham, MA, USA), and Dulbecco’s Modified Eagle Medium (DMEM) high glucose (Nacalai Tesque, Inc.), respectively. The culture media contained 10% fetal bovine serum (FBS, Equitech-Bio Inc., Kerrville, TX, USA) and 50 μg/mL kanamycin (Fujifilm Wako Pure Chemical Corporation, Osaka, Japan). To induce cell adaptation to nutrient starvation, PANC-1 was cultured in DMEM no glucose (Nacalai Tesque, Inc.) containing 10% dialyzed FBS (Equitech-Bio Inc.) and 50 μg/mL kanamycin. Human umbilical vein endothelial cells (HUVEC) were obtained from Kurabo Industries Ltd., Osaka, Japan (KE-4109) and cultured in HuMedia-EB2 (Kurabo Industries Ltd.) supplemented with HuMedia-EG (2% FBS, 10 ng/mL human epidermal growth factor, 1.34 μg/mL hydrocortisone, antibacterial agents, 50 μg/mL gentamicin and 50 ng/mL amphotericin B, 5 ng/mL human fibroblast growth factor-B, and 10 μg/mL heparin). Cells were incubated in a humidified incubator at 37 °C in an atmosphere of 5% CO2.
The anti-austerity activity against PANC-1 cell line was investigated by a WST-8 based assay according to the method described above. PANC-1 cells were plated in a 96-well flat bottom plate at a high density of 10,000 cells/100 μL/well in a DMEM high glucose medium overnight. The medium was removed, washed with phosphate-buffered saline (PBS, Nissui Pharmaceutical Co., Ltd., Tokyo, Japan) twice, and then replaced with either DMEM high glucose or DMEM no glucose. After incubation for 12 h, crude extracts (final concentration 100 μg/mL) or serially diluted compounds were added, and the cells were incubated for an additional 12 h. […] Selective index (SI) was based on the difference between the IC50 values obtained from the high glucose and no glucose media. Antimycin A was used as a positive control.

[2] = system: HUVEC (human umbilical vein endothelial cells); test: Antiproliferative WST-8 assay, HUVEC; format: cell-based; conditions: 48 h, normal cell line, read-out: Antiproliferative Activity (IC50 ± SE) HUVEC
Description: The antiproliferative activity of all eleven isolated compounds against normal cell line HUVEC was also examined by WST-8 based assay (Table 2). […] Further extensive structural modifications and in-depth structure–activity relationship studies are required to enhance efficacy and reduce the side effects on normal cells.
(§1) The antiproliferative activity against cancer and normal cell lines was investigated by a WST-8 based assay. […] Compounds to be tested were dissolved in DMSO for stock solution (20 μg/mL) and the final concentration of DMSO was 0.5%. Then, 100 μL of corresponding medium containing 10% WST-8 (Nacalai Tesque, Inc.) was added and incubated for up to 4 h. The absorbance of the formazan products was measured at 450 nm using an iMark^TM microplate reader (Bio-Rad Laboratories, Inc. Hercules, CA, USA). […] Cisplatin (Fujifilm Wako Pure Chemical Corporation) was used as a positive control.

[3] = system: PANC-1 human pancreas cell line; test: Antiproliferative WST-8 assay, PANC-1; format: cell-based; conditions: read-out: Antiproliferative Activity (IC50 ± SE) PANC-1
Source text: (§2) The assessment of antiproliferative effects is a fundamental in vitro assay in the early stages of drug discovery for the screening of potential anticancer compounds that merit further investigation and development for their therapeutic potential in the fight against cancer. The antiproliferative activity of all isolated compounds against three cancer cell lines (KMS-11, HT-29, and PANC-1) was examined by WST-8 based assay according to the manufacturer’s instructions.
as §1

[4] = system: KMS-11, HT-29, and PANC-1 cancer cell lines; test: Antiproliferative activity, summary over the three cancer cell lines; format: cell-based, human; conditions: for IC50: Homo sapiens, 48 h, KMS-11, HT-29 and PANC-1, read-out: IC50, antiproliferative, over all tested cancer cell lines
Source text: as §2, §1

[5] = system: KMS-11 human myeloma cell line; test: Antiproliferative WST-8 assay, KMS-11; format: cell-based; conditions: read-out: Antiproliferative Activity (IC50 ± SE) KMS-11
Source text: as §2, §1

[6] = system: HT-29 human colorectal cell line; test: Antiproliferative WST-8 assay, HT-29; format: cell-based; conditions: read-out: Antiproliferative Activity (IC50 ± SE) HT-29
Source text: as §2, §1

[7] = design: method as in PMID 31030449, PMID 36005532; conditions: cited from earlier work
[8] = design: method as in PMID 31030449, PMID 36005532; conditions: cited from earlier work; remark: listed apart in the source
[9] = system: complex II in the mitochondrial electron transport chain; design: method as in PMID 31435860; conditions: cited from earlier work
[10] = system: Escherichia coli; design: method as in PMID 26728965, PMID 32676071, PMID 32077325, doi:10.1007/s10600-022-03814-7; conditions: cited from earlier work
[11] = system: lung A549; design: method as in PMID 29144133; conditions: at 50 μM; cited from earlier work
[12] = system: leukemia HL-60; design: method as in PMID 29144133; conditions: at 50 μM; cited from earlier work
[13] = system: human cervical HeLa; design: method as in PMID 29144133; conditions: at 50 μM; cited from earlier work
[14] = system: mouse lymphoma L5178Y cell line; design: method as in earlier work; conditions: at 28 μM; cited from earlier work
[15] = system: colon HCT-116; design: method as in PMID 29144133; conditions: at 50 μM; cited from earlier work
[16] = design: method as in PMID 25659618; conditions: oxygen-labile conjugated diene units; cited from earlier work
[17] = system: breast MCF-7; design: method as in PMID 29144133; conditions: at 50 μM; cited from earlier work
[18] = system: complex I in helminth mitochondria; conditions: cited from earlier work
[19] = system: leukemia K562; design: method as in PMID 29144133; conditions: at 50 μM; cited from earlier work
[20] = Homo sapiens, PANC-1, 12 h, read-out: Anti-Austerity Activity (IC50 ± SE) Glucose +
[21] = Homo sapiens, PANC-1, 12 h, read-out: Anti-Austerity Activity (IC50 ± SE) Glucose −

## CC(C)[C@@H](C)/C=C/[C@@H](C)[C@H]1CC[C@@H]2[C@]1(C)CC[C@H]1[C@]23C=C[C@]2(C[C@@H](O)CC[C@]12C)OO3 [Compound 5, ergosterol peroxide]
[1]; [20]
  IC50: > 100 µM
[1]; [21]
  IC50: > 100 µM
[2]; Homo sapiens, HUVEC
  IC50: > 100 µM
[3]; Homo sapiens, PANC-1, 48 h
  IC50: > 100 µM
[4]
  IC50: > 100 µM
[5]; Homo sapiens, KMS-11, 48 h
  IC50: > 100 µM
[6]; Homo sapiens, HT-29, 48 h
  IC50: > 100 µM

## COc1cc(O)c2c(=O)c(C)c(C)oc2c1 [Compound 8, 5-hydroxy-2,3-dimethyl-7-methoxychromone]
[7]
  DPPH scavenging activity: weak or no
[1]; [20]
  IC50: > 100 µM
[1]; [21]
  IC50: > 100 µM
[2]; Homo sapiens, HUVEC
  IC50: > 100 µM
[3]; Homo sapiens, PANC-1, 48 h
  IC50: > 100 µM
[4]
  IC50: > 100 µM
[5]; Homo sapiens, KMS-11, 48 h
  IC50: > 100 µM
[8]
  Antimicrobial activity: weak or no
[6]; Homo sapiens, HT-29, 48 h
  IC50: > 100 µM

## COc1ccc2cc(NC(=O)[C@@]34C[C@@]5(O)C(ON3)[C@H](O)C=C[C@H]5S4)c(=O)oc2c1OC (stereo partly shown) [Compound 3, aspergillazine A]
[1]
  Anti-Austerity Activity Selectivity: selective
  Selective index (SI): ≥ 5
[1]; [20]
  IC50: > 400 µM
[1]; [21]
  IC50: 75.6 ± 4.08 µM
[2]; Homo sapiens, HUVEC
  IC50: 26.2 ± 5.51 µM
[3]; Homo sapiens, PANC-1, 48 h
  IC50: 50.3 ± 4.21 µM
[5]; Homo sapiens, KMS-11, 48 h
  IC50: 38 ± 7.72 µM
[6]; Homo sapiens, HT-29, 48 h
  IC50: 22.2 ± 3.09 µM

## COc1ccc(C2SSC34CC5(O)C(Cl)C=CC(O)C5ON3C(=O)C2NC4=O)c(O)c1OC (stereo not shown) [Compound 4, DC1149B]
[1]
  Anti-Austerity Activity Selectivity: selective
  Selective index (SI): 10
[1]; [20]
  IC50: 213 ± 4.07 µM
[1]; [21]
  IC50: 22.4 ± 2.5 µM
[2]; Homo sapiens, HUVEC
  IC50: 6.94 ± 0.86 µM
[3]; Homo sapiens, PANC-1, 48 h
  IC50: 24.7 ± 4.44 µM
[5]; Homo sapiens, KMS-11, 48 h
  IC50: 7.6 ± 0.4 µM
[9]
  Inhibition of complex II in the mitochondrial electron transport chain: inhibition
[6]; Homo sapiens, HT-29, 48 h
  IC50: 39.2 ± 4.6 µM

## COc1ccc2cc(NC(=O)C3=NO[C@H]4[C@H](O)C=C[C@@H](Cl)[C@@]4(O)C3)c(=O)oc2c1OC [Compound 2, trichodermamide B]
[1]
  Anti-Austerity Activity Selectivity: did not display selectivity; also recorded: not selective
[1]; [20]
  IC50: 11.6 ± 1.59 µM
[1]; [21]
  IC50: 17.8 ± 4.75 µM
[2]; Homo sapiens, HUVEC
  IC50: 1.69 ± 0.26 µM
[3]; Homo sapiens, PANC-1, 48 h
  IC50: 3.58 ± 0.32 µM
[4]
  IC50: 0.7 to 3.6 µM
[5]; Homo sapiens, KMS-11, 48 h
  IC50: 1.38 ± 0.12 µM
[6]; Homo sapiens, HT-29, 48 h
  IC50: 0.73 ± 0.12 µM

## COc1ccc2cc(NC(=O)C3=NO[C@H]4[C@H](O)C=C[C@@H](O)[C@@]4(O)C3)c(=O)oc2c1OC [Compound 1, trichodermamide A]
[1]; [20]
  IC50: > 100 µM
[1]; [21]
  IC50: > 100 µM
[1]; Homo sapiens, PANC-1, 12 h, read-out: IC50 against PANC-1 under both glucose starvation and normal glucose conditions
  IC50: > 100 µM
[2]; Homo sapiens, HUVEC
  IC50: > 100 µM
[3]; Homo sapiens, PANC-1, 48 h
  IC50: > 100 µM
[4]; all tested cell lines
  Antiproliferative activity in words: completely inactive
[5]; Homo sapiens, KMS-11, 48 h
  IC50: > 100 µM
[6]; Homo sapiens, HT-29, 48 h
  IC50: > 100 µM

## CCC(C)C=CC=C(C)CC(C)C=CC=CC1OC(=O)C(O)C2OC12C (stereo not shown) [Compound 9, nafuredin A]
[10]
  Antibacterial activity against Escherichia coli: exhibited antibacterial activity
[11]
  Cytotoxicity: no cytotoxicity
[12]
  Cytotoxicity: no cytotoxicity
[13]
  Cytotoxicity: no cytotoxicity
[14]
  Cytotoxicity: no cytotoxicity
[15]
  Cytotoxicity: no cytotoxicity
[16]
  Stability in air: unstable in air
[17]
  Cytotoxicity: no cytotoxicity
[1]
  Anti-Austerity Activity Selectivity: selective
  Selective index (SI): 2
[1]; [20]
  IC50: 76.7 ± 3.22 µM
[1]; [21]
  IC50: 49 ± 1.31 µM
[18]
  Inhibition of complex I in helminth mitochondria: selective inhibition
[19]
  Cytotoxicity: no cytotoxicity
[2]; Homo sapiens, HUVEC
  IC50: 2.45 ± 0.16 µM
[3]; Homo sapiens, PANC-1, 48 h
  IC50: 15.3 ± 0.44 µM
[4]
  IC50: 6.9 to 15.3 µM
[5]; Homo sapiens, KMS-11, 48 h
  IC50: 6.9 ± 1.84 µM
[6]; Homo sapiens, HT-29, 48 h
  IC50: 11.9 ± 0.55 µM

## CCCCCC[C@H]1C(=O)O[C@H](C)[C@H](NC(=O)c2cccc(NC=O)c2O)C(=O)O[C@@H](C)[C@@H]1OC(=O)CC(C)C [Antimycin A, reference compound]
[1]
  Anti-Austerity Activity Selectivity: selective
  Selective index (SI): ≥ 18,480
[1]; [20]
  IC50: > 300 µM
[1]; [21]
  IC50: 0.0162 ± 0.00026 µM

## N.N.[Cl][Pt][Cl] [Cisplatin, reference compound]
[1]; read-out: Anti-Austerity Activity (IC50 ± SE) Glucose +, 12 h, normal glucose (DMEM high glucose)
  IC50: > 100 µM
[1]; read-out: Anti-Austerity Activity (IC50 ± SE) Glucose −, 12 h, glucose starvation (DMEM no glucose)
  IC50: > 100 µM
[1]; read-out: IC50 against PANC-1 under both glucose starvation and normal glucose conditions, 12 h, both Glucose − and Glucose +
  IC50: > 100 µM
[2]
  IC50: 13.7 ± 2.57 µM
[3]; 48 h
  IC50: 28.6 ± 3.43 µM
[5]; 48 h
  IC50: 4.91 ± 1.06 µM
[6]; 48 h
  IC50: 10.6 ± 0.83 µM
